Reference: publication PMC11003488 (Journal of Enzyme Inhibition and Medicinal Chemistry, 2023)

Key:
OVCAR-5 = assay: NCI-60 SRB growth inhibition, one-dose and five-dose; assay type: cell-based; details: Homo sapiens
A549/ATCC = assay: as above; assay type: cell-based; details: Homo sapiens
NCI-H322M = assay: as above; assay type: cell-based; details: Homo sapiens
U251 = assay: as above; assay type: cell-based; details: Homo sapiens
CAKI-1 = assay: as above; assay type: cell-based; details: Homo sapiens
UACC-257 = assay: as above; assay type: cell-based; details: Homo sapiens
MOLT-4 = assay: as above; assay type: cell-based; details: Homo sapiens
BT-549 = assay: as above; assay type: cell-based; details: Homo sapiens
SNB-75 = assay: as above; assay type: cell-based; details: Homo sapiens
SNB-19 = assay: as above; assay type: cell-based; details: Homo sapiens
MDA-MB-468 = assay: as above; assay type: cell-based; details: Homo sapiens
K-562 = assay: as above; assay type: cell-based; details: Homo sapiens
OVCAR-4 = assay: as above; assay type: cell-based; details: Homo sapiens
SF-295 = assay: as above; assay type: cell-based; details: Homo sapiens
DU-145 = assay: as above; assay type: cell-based; details: Homo sapiens
T-47D = assay: as above; assay type: cell-based; details: Homo sapiens, T47D
SK-OV-3 = assay: as above; assay type: cell-based; details: Homo sapiens
HT29 = assay: as above; assay type: cell-based; details: Homo sapiens
HCT-15 = assay: as above; assay type: cell-based; details: Homo sapiens
CCRF-CEM = assay: as above; assay type: cell-based; details: Homo sapiens
HOP-92 = assay: as above; assay type: cell-based; details: Homo sapiens
NCI-H460 = assay: as above; assay type: cell-based; details: Homo sapiens
MCF7 = assay: as above; assay type: cell-based; details: Homo sapiens
RXF 393 = assay: as above; assay type: cell-based; details: Homo sapiens
SK-MEL-28 = assay: as above; assay type: cell-based; details: Homo sapiens
A498 = assay: as above; assay type: cell-based; details: Homo sapiens
COLO 205 = assay: as above; assay type: cell-based; details: Homo sapiens
MALME-3M = assay: as above; assay type: cell-based; details: Homo sapiens
NCI-H522 = assay: as above; assay type: cell-based; details: Homo sapiens
OVCAR-3 = assay: as above; assay type: cell-based; details: Homo sapiens
SK-MEL-5 = assay: as above; assay type: cell-based; details: Homo sapiens
SR = assay: as above; assay type: cell-based; details: Homo sapiens
M14 = assay: as above; assay type: cell-based; details: Homo sapiens
LOX IMVI = assay: as above; assay type: cell-based; details: Homo sapiens
[1] = system: NCI 60-cell line panel (full panel); assay: NCI-60 SRB growth inhibition, full panel mean / MG-MID; assay type: cell-based, human
EKVX = assay: NCI-60 SRB growth inhibition, one-dose and five-dose; assay type: cell-based; details: Homo sapiens
SF-268 = assay: as above; assay type: cell-based; details: Homo sapiens
786-0 = assay: as above; assay type: cell-based; details: Homo sapiens
NCI-H23 = assay: as above; assay type: cell-based; details: Homo sapiens
SK-MEL-2 = assay: as above; assay type: cell-based; details: Homo sapiens, SK-MEL-2, read-out: percent growth inhibition
SW-620 = assay: as above; assay type: cell-based; details: Homo sapiens
NCI/ADR-RES = assay: as above; assay type: cell-based; details: Homo sapiens
[2] = read-out: percent growth inhibition

Compound: CC(=O)Nc1ccc(/C=C/C(=O)c2cccc(NCc3csc4ccccc34)c2)cc1 [Compound 5i, (E)-N-(4–(3-(3-((benzo[b]thiophen-3-ylmethyl)amino)phenyl)-3-oxoprop-1-en-1-yl)phenyl) acetamide]
- GI50 (OVCAR-5; OVCAR-5): 13 µM
- inhibition at 10 µM (OVCAR-5; OVCAR-5, read-out: percent growth inhibition): 30.4%
- GI50 (A549/ATCC; A549): 17 µM
- inhibition at 10 µM (A549/ATCC; A549, read-out: percent growth inhibition): 45.8%
- GI50 (NCI-H322M): 17.5 µM
- inhibition at 10 µM (NCI-H322M; [2]): 41.2%
- GI50 (U251; U-251): 2.24 µM
- inhibition at 10 µM (U251; U-251, read-out: percent growth inhibition): 165%
- GI50 (CAKI-1; CAKI-1): 18.4 µM
- inhibition at 10 µM (CAKI-1; CAKI-1, read-out: percent growth inhibition): 57.7%
- GI50 (UACC-257; UACC-257): 14.2 µM
- inhibition at 10 µM (UACC-257; UACC-257, read-out: percent growth inhibition): 50.6%
- GI50 (MOLT-4; MOLT-4): 2.73 µM
- inhibition at 10 µM (MOLT-4; MOLT-4, read-out: percent growth inhibition): 111%
- GI50 (BT-549; BT-549): 4.29 µM
- inhibition at 10 µM (BT-549; BT-549, read-out: percent growth inhibition): 83.6%
- GI50 (SNB-75; SNB-75): 3.39 µM
- inhibition at 10 µM (SNB-75; SNB-75, read-out: percent growth inhibition): 30.5%
- GI50 (SNB-19; SNB-19): 3.76 µM
- inhibition at 10 µM (SNB-19; SNB-19, read-out: percent growth inhibition): 98%
- GI50 (MDA-MB-468; MDA-MB-468): 4 µM
- inhibition at 10 µM (MDA-MB-468; MDA-MB-468, read-out: percent growth inhibition): 97.9%
- GI50 (K-562; K562): 3.07 µM
- inhibition at 10 µM (K-562; K562, read-out: percent growth inhibition): 114%
- GI50 (OVCAR-4; OVCAR-4): 9.52 µM
- inhibition at 10 µM (OVCAR-4; OVCAR-4, read-out: percent growth inhibition): 64.8%
- GI50 (SF-295; SF-295): 11.9 µM
- inhibition at 10 µM (SF-295; SF-295, read-out: percent growth inhibition): 73.1%
- GI50 (DU-145; DU-145): 5.45 µM
- inhibition at 10 µM (DU-145; DU-145, read-out: percent growth inhibition): 74.7%
- GI50 (T-47D): 4.14 µM
- inhibition at 10 µM (T-47D; [2]): 79.7%
- GI50 (SK-OV-3; SK-OV-3): 16.7 µM
- inhibition at 10 µM (SK-OV-3; SK-OV-3, read-out: percent growth inhibition): 1.94%
- GI50 (HT29; HT-29): 5.38 µM
- inhibition at 10 µM (HT29; HT-29, read-out: percent growth inhibition): 92.8%
- GI50 (HCT-15; HCT-15): 2.1 µM
- inhibition at 10 µM (HCT-15; HCT-15, read-out: percent growth inhibition): 142%
- GI50 (CCRF-CEM): 2.87 µM
- inhibition at 10 µM (CCRF-CEM; [2]): 125%
- GI50 (HOP-92; HOP-92): 18.3 µM
- inhibition at 10 µM (HOP-92; HOP-92, read-out: percent growth inhibition): 12.3%
- GI50 (NCI-H460; NCI-H460): 3.84 µM
- inhibition at 10 µM (NCI-H460; NCI-H460, read-out: percent growth inhibition): 88.9%
- GI50 (MCF7; MCF7): 2.4 µM
- inhibition at 10 µM (MCF7; MCF7, read-out: percent growth inhibition): 130%
- GI50 (RXF 393; RXF 393): 10 µM
- inhibition at 10 µM (RXF 393; RXF 393, read-out: percent growth inhibition): 93.2%
- GI50 (SK-MEL-28; SK-MEL-28): 11.9 µM
- inhibition at 10 µM (SK-MEL-28; SK-MEL-28, read-out: percent growth inhibition): 53.4%
- GI50 (A498; A498): 17.4 µM
- inhibition at 10 µM (A498; A498, read-out: percent growth inhibition): 9.33%
- GI50 (COLO 205; COLO 205): 17 µM
- inhibition at 10 µM (COLO 205; COLO 205, read-out: percent growth inhibition): 19.8%
- GI50 (MALME-3M): 9.28 µM
- inhibition at 10 µM (MALME-3M; [2]): 55.5%
- GI50 (NCI-H522; NCI-H522): 5.78 µM
- inhibition at 10 µM (NCI-H522; NCI-H522, read-out: percent growth inhibition): 87.6%
- GI50 (OVCAR-3; OVCAR-3): 3.47 µM
- inhibition at 10 µM (OVCAR-3; OVCAR-3, read-out: percent growth inhibition): 133%
- GI50 (SK-MEL-5; SK-MEL-5): 5.97 µM
- inhibition at 10 µM (SK-MEL-5; SK-MEL-5, read-out: percent growth inhibition): 85.9%
- GI50 (SR): 2.79 µM
- GI50 (M14; M14): 10.9 µM
- inhibition at 10 µM (M14; M14, read-out: percent growth inhibition): 57.7%
- GI50 (LOX IMVI): 2.05 µM
- inhibition at 10 µM (LOX IMVI; [2]): 174%
- GI50 ([1]; Homo sapiens, 60 cell, read-out: Full panel GI50 mean): 7.06 µM
- Full panel Mean GI % ([1]; mean over NCI-60 panel, single dose 10 µM): 82.81%
- GI50 (EKVX): 10.8 µM
- inhibition at 10 µM (EKVX; [2]): 73%
- GI50 (SF-268; SF-268): 12.7 µM
- inhibition at 10 µM (SF-268; SF-268, read-out: percent growth inhibition): 80%
- GI50 (786-0; 786-0): 11.4 µM
- inhibition at 10 µM (786-0; 786-0, read-out: percent growth inhibition): 81.8%
- GI50 (NCI-H23; NCI-H23): 9.1 µM
- inhibition at 10 µM (NCI-H23; NCI-H23, read-out: percent growth inhibition): 57.5%
- inhibition at 10 µM (SK-MEL-2): 39.9%
- GI50 (SW-620; SW-620): 2.6 µM
- inhibition at 10 µM (SW-620; SW-620, read-out: percent growth inhibition): 123%
- GI50 (NCI/ADR-RES): 2.79 µM
- inhibition at 10 µM (NCI/ADR-RES; [2]): 117%
